This passage reports IC50 results from patent US20260132140A1, “IMIDAZOLYL-AMINO-PYRAZINE-CARBONITRILS AS CHK-1 INHIBITORS” (BenevolentAI Bio Limited, priority 2022, published 2026).

Experiment [1] has as its target T1, human Chk1 kinase (Homo sapiens, UniProt O14757).
T1 sequence (O14757 1-476): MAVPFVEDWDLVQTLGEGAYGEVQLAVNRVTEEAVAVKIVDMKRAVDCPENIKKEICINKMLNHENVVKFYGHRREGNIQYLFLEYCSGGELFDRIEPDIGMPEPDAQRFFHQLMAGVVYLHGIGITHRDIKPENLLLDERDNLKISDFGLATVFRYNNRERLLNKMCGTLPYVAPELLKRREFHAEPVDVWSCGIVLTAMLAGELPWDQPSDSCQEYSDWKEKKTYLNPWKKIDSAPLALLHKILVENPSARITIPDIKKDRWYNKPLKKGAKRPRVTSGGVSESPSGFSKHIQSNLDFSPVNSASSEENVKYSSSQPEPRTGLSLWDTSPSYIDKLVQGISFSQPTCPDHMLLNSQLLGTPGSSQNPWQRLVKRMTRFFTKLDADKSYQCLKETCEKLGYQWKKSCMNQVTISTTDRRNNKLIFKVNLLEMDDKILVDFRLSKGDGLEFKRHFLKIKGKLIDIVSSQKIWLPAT
In words: biochemical.

Experiment [2] has as its target human Chk2 kinase (Homo sapiens, UniProt O96017). In words: biochemical.

Each structure is given as a SMILES string. Bounds are passed on as bounds.

human Chk2 kinase, sequence (O96017 whole entry): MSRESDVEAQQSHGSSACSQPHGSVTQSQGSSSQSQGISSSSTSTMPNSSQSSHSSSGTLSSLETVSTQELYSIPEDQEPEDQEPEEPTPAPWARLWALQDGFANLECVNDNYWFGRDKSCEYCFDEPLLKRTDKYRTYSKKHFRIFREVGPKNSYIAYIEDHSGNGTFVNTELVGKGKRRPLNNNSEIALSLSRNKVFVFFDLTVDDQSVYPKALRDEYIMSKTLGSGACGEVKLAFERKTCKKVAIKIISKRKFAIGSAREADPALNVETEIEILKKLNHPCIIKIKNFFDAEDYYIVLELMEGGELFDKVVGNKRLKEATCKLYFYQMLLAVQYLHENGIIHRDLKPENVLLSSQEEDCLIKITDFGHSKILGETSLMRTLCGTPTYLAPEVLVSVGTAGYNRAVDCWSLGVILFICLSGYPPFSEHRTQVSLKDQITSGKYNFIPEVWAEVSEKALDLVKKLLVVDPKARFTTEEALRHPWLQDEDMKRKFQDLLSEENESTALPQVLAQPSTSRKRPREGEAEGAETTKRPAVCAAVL

With `CN(C)[C@@H]1CCN(c2cnc(-n3cnc(Nc4cnc(C#N)cn4)c3)nc2)C1` [Example 82, (R)-5-((1-(5-(3-(Dimethylamino)pyrrolidin-1-yl)pyrimidin-2-yl)-1H-imidazol-4-yl)amino)pyrazine-2-carbonitrile], the IC50 lay within 31.6 to 100 nM in experiment [1] and 1000 to 10000 nM in experiment [2].

In the case of `CN1CC[C@@H]2CN(c3ccc(-n4cnc(Nc5cnc(C#N)cn5)c4)cc3)C[C@@H]21` [Example 87, 5-((1-(4-((3aR,6aR)-1-Methylhexahydropyrrolo[3,4-b]pyrrol-5(1H)-yl)phenyl)-1H-imidazol-4-yl)amino)pyrazine-2-carbonitrile], the results for the IC50 in experiment [1] and in experiment [2] were 10 to 31.6 nM and 10000 to 100000 nM, respectively.

For the compound `CCN[C@H]1CN(c2ccc(-n3cnc(Nc4cnc(C#N)cn4)c3)cc2)C[C@H]1F` [Example 88, 5-((1-(4-((3S,4R)-3-(Ethylamino)-4-fluoropyrrolidin-1-yl)phenyl)-1H-imidazol-4-yl)amino)pyrazine-2-carbonitrile], the IC50 in experiment [1] was 10 to 31.6 nM; in experiment [2], 1000 to 10000 nM.

`CN1CC[C@@H]2[C@H]1CCN2c1ccc(-n2cnc(Nc3cnc(C#N)cn3)c2)cc1` [Example 91, 5-((1-(4-((3aR,6aR)-4-Methylhexahydropyrrolo[3,2-b]pyrrol-1(2H)-yl)phenyl)-1H-imidazol-4-yl)amino)pyrazine-2-carbonitrile]: the IC50 was in the range of 10 to 31.6 nM in experiment [1] and 10000 to 100000 nM in experiment [2].

For `N#Cc1cnc(Nc2cn(-c3ccc(N4CC[C@@H](NCCC(F)(F)F)C4)cn3)cn2)cn1` [Example 93, (R)-5-((1-(5-(3-((3,3,3-Trifluoropropyl)amino)pyrrolidin-1-yl)pyridin-2-yl)-1H-imidazol-4-yl)amino)pyrazine-2-carbonitrile], the figures for the IC50 in experiment [1] and in experiment [2] were 10 to 31.6 nM and > 100000 nM, respectively.

For `CN1CC[C@@H](N(C)c2ccc(-n3cnc(Nc4cnc(C#N)cn4)c3)cc2)C1` [Example 94, (R)-5-((1-(4-(Methyl(1-methylpyrrolidin-3-yl)amino)phenyl)-1H-imidazol-4-yl)amino)pyrazine-2-carbonitrile], the IC50 lay in the range of 31.6 to 100 nM in experiment [1] and 10000 to 100000 nM in experiment [2].

Regarding `CN1CC[C@H](N(C)c2ccc(-n3cnc(Nc4cnc(C#N)cn4)c3)cc2)C1` [Example 95, (S)-5-((1-(4-(Methyl(1-methylpyrrolidin-3-yl)amino)phenyl)-1H-imidazol-4-yl)amino)pyrazine-2-carbonitrile], the IC50 in experiment [1] was in the range of 31.6 to 100 nM; in experiment [2], 10000 to 100000 nM.

With `CN1CCN(c2ccc(-n3cnc(Nc4cnc(C#N)cn4)c3)cc2)CC1(C)C` [Example 97, 5-((1-(4-(3,3,4-Trimethylpiperazin-1-yl)phenyl)-1H-imidazol-4-yl)amino)pyrazine-2-carbonitrile], the IC50 in experiment [1] was 31.6 to 100 nM; in experiment [2] it was 10000 to 100000 nM.

On to `CN1CC2(CCN2c2ccc(-n3cnc(Nc4cnc(C#N)cn4)c3)cc2)C1` [Example 99, 5-((1-(4-(6-Methyl-1,6-diazaspiro[3.3]heptan-1-yl)phenyl)-1H-imidazol-4-yl)amino)pyrazine-2-carbonitrile], for which the IC50 in experiment [1] fell in the range of 10 to 31.6 nM; in experiment [2], 10000 to 100000 nM.

Take `CN1CCC12CCN(c1ccc(-n3cnc(Nc4cnc(C#N)cn4)c3)cc1)CC2` [Example 100, 5-((1-(4-(1-Methyl-1,7-diazaspiro[3.5]nonan-7-yl)phenyl)-1H-imidazol-4-yl)amino)pyrazine-2-carbonitrile]: the IC50 is 10 to 31.6 nM in experiment [1] and 10000 to 100000 nM in experiment [2].

In the case of `CN1C[C@@H]2CN(c3ccc(-n4cnc(Nc5cnc(C#N)cn5)c4)cc3)C[C@@H]2C1` [Example 101, 5-((1-(4-((3aR,6aS)-5-Methylhexahydropyrrolo[3,4-c]pyrrol-2(1H)-yl)phenyl)-1H-imidazol-4-yl)amino)pyrazine-2-carbonitrile], the IC50 in experiment [1] is < 10 nM; in experiment [2] it was 10000 to 100000 nM.

For the compound `N#Cc1cnc(Nc2cn(-c3ccc(N4CC[C@@H](N5CCC5)C4)cn3)cn2)cn1` [Example 102, (R)-5-((1-(5-(3-(Azetidin-1-yl)pyrrolidin-1-yl)pyridin-2-yl)-1H-imidazol-4-yl)amino)pyrazine-2-carbonitrile], the IC50 lay in the range of 10 to 31.6 nM in experiment [1] and 1000 to 10000 nM in experiment [2].

Consider `COc1cc(N2CC[C@@H](N3CCC3)C2)ccc1-n1cnc(Nc2cnc(C#N)cn2)c1` [Example 103, (R)-5-((1-(4-(3-(Azetidin-1-yl)pyrrolidin-1-yl)-2-methoxyphenyl)-1H-imidazol-4-yl)amino)pyrazine-2-carbonitrile], for which the IC50 is < 10 nM in experiment [1] and 1000 to 10000 nM in experiment [2].

Regarding `Cc1cc(-n2cnc(Nc3cnc(C#N)cn3)c2)ccc1N1CC[C@@H](N2CCC2)C1` [Example 104, (R)-5-((1-(4-(3-(Azetidin-1-yl)pyrrolidin-1-yl)-3-methylphenyl)-1H-imidazol-4-yl)amino)pyrazine-2-carbonitrile], the IC50 in experiment [1] lay within 10 to 31.6 nM; in experiment [2], 10000 to 100000 nM.

Consider `N#Cc1cnc(Nc2cn(-c3ccc(CN4CCOCC4)cc3)cn2)cn1` [Example 142, 5-((1-(4-(Morpholinomethyl)phenyl)-1H-imidazol-4-yl)amino)pyrazine-2-carbonitrile], for which the IC50 in experiment [1] is 100 to 316 nM; in experiment [2], 10000 to 100000 nM.

`CN1C[C@@H](F)[C@@H](OCc2ccc(-n3cnc(Nc4cnc(C#N)cn4)c3)cc2)C1` [Example 146, 5-((1-(4-((((3S,4R)-4-fluoro-1-Methylpyrrolidin-3-yl)oxy)methyl)phenyl)-1H-imidazol-4-yl)amino)pyrazine-2-carbonitrile]: the IC50 in experiment [1] lay in the range of 31.6 to 100 nM; in experiment [2] it was 10000 to 100000 nM.

Consider `N#Cc1cnc(Nc2cn(-c3cccc(N4C[C@@H](N)[C@@H](F)C4)c3)cn2)cn1` [Example 151, 5-((1-(3-((3R,4S)-3-Amino-4-fluoropyrrolidin-1-yl)phenyl)-1H-imidazol-4-yl)amino)pyrazine-2-carbonitrile], for which the values for the IC50 in experiment [1] and in experiment [2] were 31.6 to 100 nM and 10000 to 100000 nM, respectively.

`N#Cc1cnc(Nc2cn(-c3ccc(N4CC(F)(CN)C4)cc3)cn2)cn1` [Example 159, 5-((1-(4-(3-(Aminomethyl)-3-fluoroazetidin-1-yl)phenyl)-1H-imidazol-4-yl)amino)pyrazine-2-carbonitrile]: the IC50 in experiment [1] fell in the range of 10 to 31.6 nM; in experiment [2] it was 1000 to 10000 nM.

On to `N#Cc1cnc(Nc2cn(-c3ccc(N4CC5(CCN5)C4)cc3)cn2)cn1` [Example 160, 5-((1-(4-(1,6-Diazaspiro[3.3]heptan-6-yl)phenyl)-1H-imidazol-4-yl)amino)pyrazine-2-carbonitrile], for which the values for the IC50 in experiment [1] and in experiment [2] were 10 to 31.6 nM and 1000 to 10000 nM, respectively.

For `N#Cc1cnc(Nc2cn(-c3ccc(N4C[C@H]5CN[C@H]5C4)cc3)cn2)cn1` [Example 161, 5-((1-(4-((1R,5R)-3,6-Diazabicyclo[3.2.0]heptan-3-yl)phenyl)-1H-imidazol-4-yl)amino)pyrazine-2-carbonitrile], the IC50 in experiment [1] was in the range of 10 to 31.6 nM; in experiment [2], 1000 to 10000 nM.

On to `CCN[C@@H]1CCN(c2ccc(-n3cnc(Nc4cnc(C#N)cn4)c3)cc2)C1` [Example 162, (R)-5-((1-(4-(3-(Ethylamino)pyrrolidin-1-yl)phenyl)-1H-imidazol-4-yl)amino)pyrazine-2-carbonitrile], for which the IC50 in experiment [1] is < 10 nM; in experiment [2], 1000 to 10000 nM.
